We go through two compounds from patent US20230129258A1, “HETEROTANDEM BICYCLIC PEPTIDE COMPLEXES” (BicycleTx Limited, priority 2019, published 2023).

In one test the test system is MC38 tumors. Kind of test: Anti-tumor activity of BCY13272 in syngeneic MC38 tumor model with re-challenge. Conditions: for complete responders: 6 doses, day 28. Type of test: in vivo, C57BL/6J-hCD137 mice. As for the experimental part:
6-8 week old female C57BL/6J-hCD137 mice [B-hTNFRSF9(CD137) mice; Biocytogen] were implanted subcutaneously with 1×10^6 MC38 cells. Mice were randomized into treatment groups (n=6/cohort) when average tumor volumes reached around 80 mm^3 and were treated with vehicle (25 mM histidine, 10% sucrose, pH7) intravenously (IV), 8 mg/kg BCY13272, 0.9 mg/kg BCY13272 and 0.1 mg/kg BCY13272 IV. All treatments were given twice a week (BIW) for 6 doses in total. Tumor growth was monitored until Day 28 from treatment initiation. Complete responder animals (n=7) were followed until day 62 after treatment initiation and re-challenged with an implantation of 2×10^6 MC38 tumor cells and tumor growth was monitored for 28 days. In parallel, naïve age-matched control huCD137 C57Bl/6 mice (n=5) were implanted with 2×10^6 MC38 tumor cells monitored for 28 days.

Another test relates to CT26 #7 tumors. Kind of test: Anti-tumor activity in syngeneic Nectin-4 overexpressing CT26 tumor model (CT26 #7). Conditions: 5 mg/kg ip Q3D, 6 doses; from day 7 forward. Format: in vivo, BALB/c-hCD137 mice. How it is done: 6-8 weeks old BALB/c-hCD137 female mice were inoculated in the flank with 3×10^5 syngeneic Nectin-4 overexpressing CT26 cells (CT26 #7). When tumors reached around 70 mm^3 size on average, mice were randomized to receive vehicle or 5 mg/kg BCY11863 intraperitoneally every three days (6 doses total). Tumor growth was monitored by caliper measurements until day 14 after treatment initiation.

The next test addresses cyno Nectin-4. Kind of test: SPR direct binding to biotinylated Nectin-4 extracellular domain, cyno. An excerpt:
(§1) The binding of BCY11863 to its primary target Nectin-4 and CD137 was characterized using surface plasmon resonance (SPR).

Test [1] has as its target T1, rat Nectin-4 (Rattus norvegicus, UniProt D3ZET1).
T1 sequence (D3ZET1 31-509): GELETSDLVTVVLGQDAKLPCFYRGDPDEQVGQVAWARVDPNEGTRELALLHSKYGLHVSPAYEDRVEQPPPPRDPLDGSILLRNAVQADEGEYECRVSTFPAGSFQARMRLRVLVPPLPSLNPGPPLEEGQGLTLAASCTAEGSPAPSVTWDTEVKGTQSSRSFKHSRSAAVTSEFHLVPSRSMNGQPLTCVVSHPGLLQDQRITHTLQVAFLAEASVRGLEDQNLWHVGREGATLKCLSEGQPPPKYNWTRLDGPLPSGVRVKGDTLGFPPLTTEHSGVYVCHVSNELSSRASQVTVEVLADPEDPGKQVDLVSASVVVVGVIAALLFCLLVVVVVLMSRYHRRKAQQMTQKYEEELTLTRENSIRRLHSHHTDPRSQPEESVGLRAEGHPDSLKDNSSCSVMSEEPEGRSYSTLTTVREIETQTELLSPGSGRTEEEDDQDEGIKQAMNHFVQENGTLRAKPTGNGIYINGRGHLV
Kind of test: SPR direct binding to biotinylated Nectin-4 extracellular domain, rat.
Excerpt: as §1

In the next test the test system is human PBMCs. Kind of test: Human PBMC-tumor cell co-culture (cytokine stimulation) assay with Nectin-4-expressing tumor cells. Format: cell-based. How it is done:
Tumor cell lines were cultured according to suppliers recommended protocol. Frozen PBMCs from healthy human donors were thawed and washed one time in room temperature PBS, and then resuspended in R10 medium. 100 μl of PBMCs (1,000,000 PBMCs/ml) and 100 μl of tumor cells (100,000 tumor cells/ml) (Effector:Target cell ratio (E:T) 10:1) were plated in each well of a 96 well flat bottom plate for the co-culture assay. 100 ng/ml of soluble anti-CD3 mAb (clone OKT3) was added to the culture on day 0 to stimulate human PBMCs. Test, control compounds, or vehicle controls were diluted in R10 media and 50 μL was added to respective wells to bring the final volume per well to 250 μL. Plates were covered with a breathable film and incubated in a humidified chamber at 37° C. with 5% CO2 for […]. Supernatants were collected 48 hours after stimulation, and human IL-2 and IFN-γ were detected by Luminex. Briefly, the standards and samples were added to black 96 well plate. Microparticle cocktail (provided in Luminex kit, R&D Systems) was added and shaken for 2 hours at room temperature. The plate was washed 3 times using magnetic holder. Biotin cocktail was then added to the plate and shaken for 1 hour at RT. The plate was washed 3 times using magnetic holder. Streptavidin cocktail was added to the plate and shaken for 30 minutes at RT. The plates were washed 3 times using magnetic holder, resuspended in 100 μL of wash buffer, shaken for 2 minutes at RT, and read using the Luminex 2000. Raw data were analyzed using built-in Luminex software to generate standard curves and interpolate protein concentrations, all other data analyses and graphing were performed using Excel and Prism software. […]

The target in test [2] is T2, rat Nectin-4 (Rattus norvegicus, UniProt D3ZET1).
T2 construct: extracellular domain using biotinylated human
Kind of test: Multicomponent SPR: Nectin-4 binding to complex captured on biotinylated human CD137, rat Nectin-4. An excerpt:
To understand whether the binding of BCY11863 to Nectin-4 was altered in the context of the ternary complex, i.e. when also bound to CD137, a multicomponent SPR binding assay was developed. BCY11863 was first captured to human CD137 immobilized on the SPR chip surface and then Nectin-4 from different species were passed over the chip to determine their affinities to the captured BCY11863 (see FIG. 21C). The affinities to Nectin-4 were generally maintained in the presence of CD137 binding as shown below: […]
T2 sequence (Q07011 24-186 partner, one chain of several): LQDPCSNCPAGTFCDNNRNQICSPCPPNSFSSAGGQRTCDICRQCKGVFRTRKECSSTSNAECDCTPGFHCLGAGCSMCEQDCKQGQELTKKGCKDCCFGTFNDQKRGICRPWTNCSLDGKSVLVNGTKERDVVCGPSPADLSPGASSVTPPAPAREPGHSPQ

Read-outs that look alike come from different tables or passages of the source. Starred links: 1 amine or outer side, 2 acyl side, 3 side chain; linkers in the order of their positions; H or OH if unused. Positions of bridges follow the written chain, without caps; N, C: chain ends. Non-standard residues stand in square brackets, D forms with d. Chains are numbered I, II in the order given. X1 = O=C(CCOCCOCCOCCN(CCOCCOCCOCCn1cc(CCC(=O)[*:2])nn1)CCOCCOCCOCCn1cc(CCC(=O)[*:3])nn1)[*:1]; TATA = O=C(CC[*:1])N1CN(C(=O)CC[*:2])CN(C(=O)CC[*:3])C1; d1Nal = N[C@H](Cc1cccc2ccccc12)C(=O)O; Hyp = O=C(O)[C@@H]1C[C@@H](O)CN1; hArg = N=C(N)NCCCC[C@H](N)C(=O)O; tBuAla = CC(C)(C)C[C@H](N)C(=O)O; Nle = CCCC[C@H](N)C(=O)O

Consider “I: A[hArg]DC[Hyp]LVNPLCLEP[d1Nal]WTC-NH2 / II: Ac-C[tBuAla]PE[dK]PYCFADPY[Nle]CA-NH2 / III: Ac-C[tBuAla]PE[dK]PYCFADPY[Nle]CA-NH2 (linker I:4-I:11-I:18, II:1-II:8-II:15, III:1-III:8-III:15 via TATA; linker I:N-II:5-III:5 via X1) [BCY13272]”, for which the complete responders in the test on MC38 tumors (0.9 mg/kg IV BIW) was 2 out of 6; in the test with MC38 tumors (8 mg/kg IV BIW), 5 out of 6. In addition, the “tumor regrowth after MC38 re-challenge of complete responders” value in the test with MC38 tumors (re-challenge day 62, monitored 28 days) is listed as “no tumor regrowth”.

One may read the Kd as the equilibrium constant for the complex coming apart. A word on the EC50: it is the concentration that produces a half-maximal response. As for `CCCC[C@@H]1NC(=O)[C@H](Cc2ccc(O)cc2)NC(=O)[C@@H]2CCCN2C(=O)[C@H](CC(=O)O)NC(=O)[C@H](C)NC(=O)[C@H](Cc2ccccc2)NC(=O)[C@@H]2CSCCC(=O)N3CN(CN(C3)C(=O)CCSC[C@@H](C(=O)N[C@@H](C)C(N)=O)NC1=O)C(=O)CCSC[C@H](NC(C)=O)C(=O)N[C@@H](CC(C)(C)C)C(=O)N1CCC[C@H]1C(=O)N[C@@H](CCC(=O)O)C(=O)N[C@H](CCCCNC(=O)CCc1cn(CCOCCOCCOCCN(CCOCCOCCOCCC(=O)N[C@H]3CSCCC(=O)N4CN5CN(C4)C(=O)CCSC[C@H](NC(=O)[C@@H](CC(=O)O)NC(=O)[C@H](Cc4cccc6ccccc46)NC(=O)[C@@H]4CCCN4C3=O)C(=O)N[C@@H](CCSC)C(=O)N[C@@H](CCCCNC(=N)N)C(=O)N[C@@H](CC(=O)O)C(=O)N[C@@H](Cc3c[nH]c4ccccc34)C(=O)N[C@@H](CO)C(=O)N[C@@H]([C@@H](C)O)C(=O)N3CCC[C@H]3C(=O)N3C[C@H](O)C[C@H]3C(=O)N[C@@H](Cc3c[nH]c4ccccc34)C(=O)N[C@H](C(N)=O)CSCCC5=O)CCOCCOCCOCCn3cc(CCC(=O)NCCCC[C@H]4NC(=O)[C@H](CCC(=O)O)NC(=O)[C@@H]5CCCN5C(=O)[C@H](CC(C)(C)C)NC(=O)[C@@H](NC(C)=O)CSCCC(=O)N5CN6CN(C5)C(=O)CCSC[C@H](NC(=O)[C@H](Cc5ccc(O)cc5)NC(=O)[C@@H]5CCCN5C4=O)C(=O)N[C@@H](Cc4ccccc4)C(=O)N[C@@H](C)C(=O)N[C@@H](CC(=O)O)C(=O)N4CCC[C@H]4C(=O)N[C@@H](Cc4ccc(O)cc4)C(=O)N[C@@H](CCCC)C(=O)N[C@H](C(=O)N[C@@H](C)C(N)=O)CSCCC6=O)nn3)nn1)C(=O)N1CCC[C@H]1C(=O)N[C@@H](Cc1ccc(O)cc1)C(=O)N2` [BCY11863], the tumor growth entry with CT26 #7 tumors was “significantly (p<0.0001, Student's t-test) reduced the tumor growth”. The equilibrium dissociation constant (Kd) on cyno Nectin-4 (Direct Binding, biotinylated Nectin-4 extracellular domain, 25° C., read-out: SPR KD NHP (25° C.)) is 27 ± 15 nM; on cyno Nectin-4 (biotinylated ECD captured on streptavidin chip, read-out: KD), 5 to 27 nM; on rat Nectin-4 [1] (KD, biotinylated ECD captured on streptavidin chip), 5 to 27 nM; at rat Nectin-4 [1] (SPR KD Rat (25° C.), Direct Binding, biotinylated Nectin-4 extracellular domain, 25° C.) it was 15 ± 1 nM; on rat Nectin-4 [2], 25 ± 2 nM. Also, the EC50 in the test with human PBMCs (4T1-D02 (mouse), 4 donors, read-out: IFNy (nM), EC50 of cytokine secretion) is 0.04 ± 0.04 nM; in the test on human PBMCs (4T1-D02 (mouse), 4 donors, read-out: IL-2 (nM), EC50 of cytokine secretion) it was 0.16 ± 0.22 nM; with human PBMCs (4T1-Parental (Nectin4-), read-out: IFNy (nM), EC50 of cytokine secretion) it was above 100 nM; in the test with human PBMCs (4T1-Parental (Nectin4-), read-out: IL-2 (nM), EC50 of cytokine secretion), above 100 nM; in the test on human PBMCs (H322 (human), 3 donors, read-out: IFNy (nM), EC50 of cytokine secretion), 0.85 ± 0.66 nM; in the test on human PBMCs (H322 (human), 3 donors, read-out: IL-2 (nM), EC50 of cytokine secretion) it was 0.84 ± 0.15 nM. Also, the EC50 in the test on human PBMCs (HT1376 (human), 5 donors, read-out: IFNy (nM), EC50 of cytokine secretion) worked out at 0.23 ± 0.15 nM; in the test on human PBMCs (HT1376 (human), 5 donors, read-out: IL-2 (nM), EC50 of cytokine secretion), 0.39 ± 0.29 nM; in the test on human PBMCs (MC38 #13 (mouse), 4 donors, read-out: IFNy (nM), EC50 of cytokine secretion), 0.17 ± 0.11 nM; with human PBMCs (MC38 #13 (mouse), 4 donors, read-out: IL-2 (nM), EC50 of cytokine secretion), 0.25 ± 0.08 nM; in the test with human PBMCs (T-47D (human), 3 donors, read-out: IFNy (nM), EC50 of cytokine secretion), 0.08 ± 0.06 nM; in the test on human PBMCs (T-47D (human), 3 donors, read-out: IL-2 (nM), EC50 of cytokine secretion), 0.2 ± 0.07 nM. In addition, the “IL-2 and IFN-γ cytokine secretion” value in the test on human PBMCs (PBMC-4T1 (Nectin-4 engineered) co-culture, FIGS. 2A, 2B) is “induces robust IL-2 and IFN-γ cytokine secretion”.
